Experimental data from article PMC12473689, “Drug Metabolism and Pharmacokinetics of Oxazolo[4,5-c]quinoline Analogs as Novel Interleukin-33 Inhibitors” (Pharmaceutics, 2025).
Counter-ions that a name gives are not always drawn.

Columns and labels:
[1] = Plasma protein binding by equilibrium dialysis (RED), human plasma; format: in vitro ADME; settings: equilibrium dialysis 37 °C 4 h, mean ± SD (n = 3), read-out: fu (%) plasma protein binding
Experimental: (§1) The nonspecific binding of KB-1517 and KB-1518 in human and mouse plasma and liver S9 fractions was determined by equilibrium dialysis using a Rapid Equilibrium Device (RED) system (Thermo Fisher Scientific, Seoul, Republic of Korea).
(§2) Working solutions (200 μM for plasma, 60 μM for S9 fractions) were prepared in 40% aqueous acetonitrile. These were diluted 20-fold into either plasma or S9 incubation buffer (1 mg/mL protein, 200 mM Tris-HCl, 2 mM MgCl2, pH 7.4) to create the final dosing solutions.
(§3) For the dialysis, RED inserts (8 kDa MWCO) were used. Into each device, 200 μL of a dosing solution was added to the sample chamber, and 350 μL of PBS was added to the buffer chamber. The plate was sealed and incubated at 37 °C for 4 h on an orbital shaker (100 rpm) to allow the system to reach equilibrium.
(§4) Following incubation, 50 μL aliquots were taken from both chambers. To ensure analytical consistency, the samples were matrix-matched: the sample chamber aliquot was mixed with 50 μL of PBS, and the buffer chamber aliquot was mixed with 50 μL of the corresponding blank matrix (plasma or S9 incubation buffer). Proteins were then precipitated by adding 200 μL of ice-cold acetonitrile containing diclofenac (1 μg/mL) as IS. The samples were subsequently vortexed, sonicated for 5 min, and centrifuged at 4000× g for 20 min. Finally, a 100 μL aliquot of the resulting supernatant was diluted with 100 μL of HPLC-grade water in a 96-well plate for subsequent LC-MS/MS analysis.

[2] = Plasma protein binding by equilibrium dialysis (RED), mouse plasma; format: in vitro ADME; settings: male, ICR, equilibrium dialysis 37 °C 4 h, mean ± SD (n = 3), read-out: fu (%) plasma protein binding
Experimental: as §1, §2, §3, §4

[3] = Binding in human liver S9 fraction by equilibrium dialysis (RED); format: in vitro ADME; settings: human, liver S9 fraction, pH 7.4, human liver S9, 1 mg/mL protein, equilibrium dialysis 37 °C 4 h, mean ± SD (n = 3); read-out: fu (%) in liver S9 fractions
Experimental: as §1, §2, §3, §4

[4] = Binding in mouse liver S9 fraction by equilibrium dialysis (RED); format: in vitro ADME; settings: ICR, mouse, liver S9 fraction, pH 7.4, mouse liver S9, 1 mg/mL protein, equilibrium dialysis 37 °C 4 h, mean ± SD (n = 3); read-out: fu (%) in liver S9 fractions
Experimental: as §1, §2, §3, §4

[5] = system: flavin-containing monooxygenase (FMO) in HLM; assay: FMO involvement: metabolic stability in control vs heat-inactivated human liver microsomes; format: in vitro ADME; settings: pre-incubated 45 °C for 5 min vs control, 60 min incubation, NADPH
Experimental: (§5) To determine the potential involvement of flavin-containing monooxygenase (FMO), a parallel assay was conducted with HLM and MLM [31]. To selectively inactivate FMO, microsomes (20 mg protein/mL) were pre-incubated at 45 °C for 5 min. Non-inactivated microsomes served as the control. Subsequently, metabolic incubations were performed with both control and heat-inactivated microsomes at 37 °C for 60 min. The incubation procedure was identical to that described above for the S9 fractions, with the exception that NADPH was used as the sole cofactor.

[6] = system: flavin-containing monooxygenase (FMO) in MLM; assay: FMO involvement: metabolic stability in control vs heat-inactivated mouse liver microsomes; format: in vitro ADME, male ICR mouse; settings: pre-incubated 45 °C for 5 min vs control, 60 min incubation, NADPH
Experimental: as §5

[7] = Metabolite identification in liver S9 incubations; format: in vitro ADME; settings: S9 1 mg protein/mL, 60 min, 37 °C, H: human, M: mouse
Experimental: The incubation mixture (final volume 200 µL) contained: 125 µL of deionized water, 40 µL of Tris mix buffer, 10 µL of 20 mg protein/mL S9 fraction (final concentration 1 mg protein/mL), and 5 µL of the test compound working solution (final concentration 3 µM). The final concentrations of DMSO and acetonitrile were 0.03% and 1%, respectively. The mixture was pre-incubated at 37 °C for 5 min in a shaking water bath. The reaction was initiated by adding 20 µL of the combined cofactor solution (final concentrations: 1 mM NADPH, 0.5 mM UDPGA, 0.1 mM PAPS, 2.5 mM GSH). Control incubations were performed without the cofactor mixture (replaced with buffer) and at 0 min (quenched immediately after adding cofactors). Incubations were carried out at 37 °C for 0, 15, 30, and 60 min (for stability) or 60 min (for metabolite ID). Reactions were terminated by adding 200 µL of ice-cold acetonitrile containing IS (diclofenac).
Metabolite identification was performed using samples generated from the in vitro liver S9 incubations (final substrate concentration 20 µM, 60 min incubation) and plasma samples from the in vivo IP administration study. Samples were analyzed using an Agilent 6530 Q-TOF LC-MS/MS system (Agilent Technologies Korea Ltd., Seoul, Republic of Korea). Data processing and metabolite identification were performed using Agilent MassHunter Metabolite ID software (ver. B.04.00), searching for expected biotransformations (e.g., oxidation, demethylation, glucuronidation, sulfation, GSH conjugation) and comparing MS/MS fragmentation patterns of metabolites with the parent drug.
Qualitative analysis for metabolite identification was performed using the same LC system coupled to an Agilent 6530 Q-TOF mass spectrometer system (Agilent Technologies Korea Ltd., Seoul, Republic of Korea) with a dual AJS ESI source operating in positive ion mode. The chromatographic conditions were identical to those used for quantitative analysis.
The ion source parameters for the mass spectrometer were set as follows: gas temperature 325 °C, gas flow 12 L/min, nebulizer pressure 35 psi, sheath gas temperature 350 °C, and sheath gas flow 10 L/min. Data were acquired in MS scan mode (m/z 100–1000) and targeted MS/MS or Auto MS/MS mode. Data acquisition and processing were performed using Agilent MassHunter Qualitative Analysis (ver. B.05.00) and Metabolite ID software (ver. B.04.00).
To elucidate the metabolic pathways, metabolite identification studies were conducted using in vitro liver S9 fractions incubations (20 µM substrate) and in vivo plasma samples from mice administered an IP dose (200 µg/mouse). Metabolites were identified based on accurate mass measurements, isotopic patterns, and MS/MS fragmentation patterns compared to the parent compound using LC-Q-TOF MS/MS system (Agilent Technologies Ltd., Seoul, Republic of Korea).

For `CNC(=C[N+](=O)[O-])NCCSCc1ccc(CN(C)C)o1` [Ranitidine, ranitidine], the fraction unbound at 4 h, 10 µM [1] was 0.85 ± 0.006 and the fraction unbound at 4 h, 10 µM [2] was 0.888 ± 0.054.
With `CCC(C)n1ncn(-c2ccc(N3CCN(c4ccc(OCC5COC(Cn6cncn6)(c6ccc(Cl)cc6Cl)O5)cc4)CC3)cc2)c1=O` (stereo not drawn) [Itraconazole, itraconazole, reference compound] the fraction unbound at 4 h, 3 µM [3] was 0.028 ± 0.006 and the fraction unbound at 4 h, 3 µM [4] was 0.019 ± 0.002.
With `CN(C)CCCOc1nn(Cc2ccccc2)c2ccccc12` [benzydamine, Benzydamine hydrochloride] the “Effect of heat inactivation (FMO) on metabolism” value [5] was “significantly inhibited the metabolism” and the “Effect of heat inactivation (FMO) on metabolism” value [6] was “significantly inhibited the metabolism”.
With `OCCNc1nc2ccccc2c2oc(-c3ccc(C(F)(F)F)cc3)nc12` [KB-1518 M2] the “Species in whose liver S9 the metabolite was detected” value (“Species” for short) ([7]; KB-1518 20 µM) was “H, M”.
With `CC(C)NCC(O)COc1cccc2ccccc12` (stereo not drawn) [Propranolol, propranolol] the fraction unbound at 4 h, 10 µM [1] was 0.262 ± 0.026 and the fraction unbound at 4 h, 10 µM [2] was 0.247 ± 0.005.
`Cc1cc(=O)n(-c2ccccc2)n1C` [Antipyrine, antipyrine, reference compound] showed a fraction unbound at 4 h, 3 µM [3] of 0.946 ± 0.026 and a fraction unbound at 4 h, 3 µM [4] of 0.937 ± 0.011.
For `CNCCn1c(=O)c2nc(-c3ccc(C(F)(F)F)cc3)oc2c2ccccc21` [KB-1517 M1], the “Species” value ([7]; KB-1517 20 µM) was “H, M”.
In the case of `CN(CCO)c1nc2ccccc2c2oc(-c3ccc(C(F)(F)F)cc3)nc12` [KB-1518 M1], the “Species” value ([7]; KB-1518 20 µM) is reported as “H, M”.
For `C[N+](C)([O-])CCOc1nc2ccccc2c2oc(-c3ccc(C(F)(F)F)cc3)nc12` [KB-1518 M3], the “Species” value ([7]; KB-1518 20 µM) was “H, M”.
In the case of `C[N+](C)([O-])CCn1c(=O)c2nc(-c3ccc(C(F)(F)F)cc3)oc2c2ccccc21` [KB-1517 M2], the “Species” value ([7]; KB-1517 20 µM) is reported as “H, M”.
